Results on four compounds are retold here after patent US11612606B2, “8-aminoisoquinoline compounds and uses thereof” (priority 2018, dated 2023).

Read-outs that look alike come from different tables or passages of the source.

The target of series [1] is HPK full length, T165E S171E (Homo sapiens (Human), UniProt Q92918, S171E/T165E). Put plainly: HPK1-FL HTRF enzymatic assay ("HTRF"). The class given is biochemical. Particulars: ATP 1 mM, read-out: HPK1 Ki. The procedure, abridged:
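HTRF detection of phosphorylated biotin-SLP-76 used Eu-anti-pSLP76 antibody and SA-XL665, read after 60 min. The kinase reaction ran 60 min at […], following a 30-min compound preincubation with the full-length enzyme.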
(In general: Time-resolved FRET reads energy transfer from a long-lived donor to a nearby acceptor.)

The subject of series [2] is phosphorylation of SLP-76 (S376) by HPK-1 in human Jurkat cells. The series can be described thus: pSLP76 assay (sandwich ELISA, anti-CD3 stimulated Jurkat cells). Particulars: Jurkat cells, anti-CD3 stimulation, read-out: pSLP76 IC50. The format is cell-based. The protocol:
Phospho-SLP76 (S376) is detected by sandwich ELISA using an anti-pSLP76(S376) capture antibody and a biotinylated anti-SLP76 detection antibody.
Incubate Jurkat cells with varying concentrations of test compounds for 30 minutes in a humidified incubator at 37° C. and 5% CO2. Add anti-CD3 DynaBeads at a 4:1 bead:cell ratio. Stimulate cells in a humidified incubator at 37° C. and 5% CO2 for 10 minutes. Add cold lysis buffer and incubate on a shaker at 4° C. for 30 minutes. Transfer cell lysates to a pre-blocked ELISA plate coated with capture antibody. Incubate at room temperature shaking for 2 hours. Wash ELISA plate 5× with wash buffer and add 25 μl of biotinylated detection antibody at a final concentration of 0.5 μg/ml. Incubate at room temperature shaking for 1 hour. Wash ELISA plate 5× with wash buffer and add 25 μl of streptavidin enzyme conjugate at a final dilution of 1:8000. Incubate at room temperature shaking for 20 minutes. Wash ELISA plate 5× with wash buffer and add 25 μl of TMB substrate solution. Incubate at room temperature in the dark shaking for 20 minutes. Add 25 μl of STOP solution and read on SoftMax Pro for absorbance at 450 nm.
Exemplary compounds of Formula (I) were tested in pSLP76 assays.

Series [3] is described as follows: Pharmacokinetic study in rat. The format is in vivo, Sprague Dawley rat. Particulars: 10% DMSO/60% PEG400/30% Water, Solution; for bioavailability: male, Sprague Dawley, plasma. The protocol: Pharmacokinetic Study in Rat: Male Sprague Dawley rats obtained from Lingchang/Vital River Laboratory Animal Technology Co., Ltd., (Shanghai/Beijing, P.R. China) with body weight ranging between 200 g to 300 g were use in the PK studies. Group of 3 rats were given a 1 mg/kg intravenous bolus (IV) dose of the test article in solution formulation, and another group of 3 rats were given a 2 or 5 mg/kg oral (PO) dose of test article as a 0.5% methylcellulose with 0.2% Tween 80 (MCT) suspension or as a solution. Blood samples (250 μL, per time point) were collected serially via the catheter in femoral artery at 0.033, 0.083, 0.25, 0.5, 1, 2, 4, 6, and 8 hours after IV or PO administration from each of the rat. Blood samples were collected into pre-chilled tubes containing Potassium (K2) EDTA and centrifuged at 3,200 g for 10 minutes at 2 to 8° C. within 1 hour of collection to harvest plasma. Plasma samples were stored at −70° C. until LC/MS/MS analysis. Concentration in each plasma sample was determined by a non-validated LC/MS/MS. Data is acquired using multiple reaction monitoring (MRM) with specific transitions monitored for each compound.
Following PO administration, percent bioavailability (% F) was determined for each animal by dividing the dose normalized area under the plasma concentration-time curve, extrapolated to infinity (AUCinf) obtained following each PO dose by the mean dose normalized AUCinf of the animals dosed by IV injection. All PK parameters are presented as mean±standard deviation (SD).
Pharmacokinetic studies were conducted in rat for exemplary compounds of Formula (I).

The test system of series [4] is primary human pan T cells. Put plainly: Human T-cell IL2 induction assay. The class given is cell-based.
The nature of series [5]: Hepatocyte stability assay. The class given is in vitro ADME. Particulars: cryopreserved human hepatocytes (10 donor pool, suspension), scaled hepatic clearance, read-out: HHep Clearance. The protocol:
(§1) Metabolic stability of compounds are assessed using a hepatocyte stability assay. Cryopreserved human hepatocytes from a 10 donor pool are quickly thawed at 37° C., suspended in prewarmed In VitroGRO™ HT Medium, and then centrifuged at 100×g at room temperature for 10 min. The supernatants are discarded, and cells are resuspended in 5 mL Dulbecco's Modified Eagle Medium (DMEM) medium. Cell viability in suspension is counted on a Hepatometer® Vision (Lonza, N.C.), and viable cells are then adjusted to […] in DMEM. Compounds are first diluted to 2 μM with DMEM medium, and then aliquots of 125 μL of drug-containing medium are transferred to 96-well non-coated plates. Incubation is initiated by the addition of 125 μL of hepatocyte suspension to yield a total incubation volume of 250 μL. Final concentration of each compound is 1 μM, and final cell density is 0.5×10^6 cells/mL. Incubations are conducted in a humidified incubator at 37° C. Aliquots of 50 μL incubation medium are taken out at different time intervals (0, 60, 120 and 180 min), and immediately mixed with 100 μL of ice-cold acetonitrile containing 50 nM propranolol (internal standard). Samples are then centrifuged at 10,000×g for 10 min, and 80 μL of supernatant is taken out and diluted with 160 μL of water prior to LC/MS-MS analysis.
(§2) Human hepatocyte stability was assessed for exemplary compounds of Formula (I) according to the above procedures.

A short description of series [6]: Permeability assay in gMDCKI cells. The format is in vitro ADME, canine. Particulars: dog, MDCK, apical-to-basolateral, 2-hour incubation, read-out: MDCK AB Papp. The protocol: (§3) Cell permeability of compounds of interest was assessed in the gMDCKI cell line, which is a modified MDCKI (Madin-Darby canine kidney) originally acquired from American Type Culture Collection (Manassa, Va.) and generated at Genentech. […] Test article was tested at 10 μM in the apical-to-basolateral (A-B) and basolateral-to-apical (B-A) directions. Test compound was dissolved in transport buffer consisting of Hank's balanced salt solution and […] (Invitrogen Corporation, Grand Island, N.Y.). Transepithelial electrical resistance (TEER) and lucifer yellow (LY) permeability were used to monitor monolayer integrity at the beginning and the end of the experiments, respectively. Test articles were analyzed by LC-MS/MS.
(§4) The efflux ratio (ER) is calculated as (Papp, B−A/Papp, A−B).
(§5) Cell permeability were assessed for exemplary compounds of Formula (I).

In series [7] the test system is Cryopreserved human hepatocytes. Put plainly: Hepatocyte stability assay. The class given is in vitro ADME. Particulars: 1 μM, scaled hepatic clearance. The procedure:
as §1, §2

In another series the test system is gMDCKI cell line. The series can be described thus: Permeability assay in gMDCKI cells. The class given is in vitro ADME, canine. Particulars: apical-to-basolateral, 10 μM, 2-hour incubation. The protocol: as §3, §4, §5

HPK full length, T165E S171E, sequence (Q92918 whole entry T165E/S171E, looked up): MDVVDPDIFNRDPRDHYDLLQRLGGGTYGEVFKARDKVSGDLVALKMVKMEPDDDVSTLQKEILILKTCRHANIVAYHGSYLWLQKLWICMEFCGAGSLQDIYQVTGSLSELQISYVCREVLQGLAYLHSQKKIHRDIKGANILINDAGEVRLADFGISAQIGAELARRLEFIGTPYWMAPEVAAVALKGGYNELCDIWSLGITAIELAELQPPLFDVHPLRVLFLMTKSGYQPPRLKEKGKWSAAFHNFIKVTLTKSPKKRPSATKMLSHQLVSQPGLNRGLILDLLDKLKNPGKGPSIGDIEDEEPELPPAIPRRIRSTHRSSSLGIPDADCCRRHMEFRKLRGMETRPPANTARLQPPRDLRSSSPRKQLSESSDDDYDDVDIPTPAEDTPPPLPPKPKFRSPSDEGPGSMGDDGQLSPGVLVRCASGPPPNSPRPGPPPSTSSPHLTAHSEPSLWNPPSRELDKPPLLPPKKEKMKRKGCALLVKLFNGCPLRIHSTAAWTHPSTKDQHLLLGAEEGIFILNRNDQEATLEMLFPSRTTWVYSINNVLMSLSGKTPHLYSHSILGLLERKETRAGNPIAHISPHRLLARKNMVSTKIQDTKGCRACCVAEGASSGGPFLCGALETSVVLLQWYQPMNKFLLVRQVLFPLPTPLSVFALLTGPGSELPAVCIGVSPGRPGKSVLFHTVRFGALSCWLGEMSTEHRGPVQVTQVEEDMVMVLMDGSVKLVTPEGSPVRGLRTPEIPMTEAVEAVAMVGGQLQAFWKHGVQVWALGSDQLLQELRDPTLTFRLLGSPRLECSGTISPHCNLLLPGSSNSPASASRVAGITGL

`Cc1c(-c2cc3cc(NC(=O)O[C@H]4C[C@H](C#N)C4)ncc3c(N)c2F)cnc2c1NCCO2` [Compound 484b, (1r,3r)-(3-Cyanocyclobutyl) N-[8-amino-7-fluoro-6-(8-methyl-2,3-dihydro-1H-pyrido[2,3-b][1,4]oxazin-7-yl)-3-isoquinolyl]carbamate]: the Ki in series [1] was 0.015 nM. Moreover, the IC50 in series [2] (Homo sapiens) was 26 nM. In addition, in series [3] (PO 5 mg/kg), the bioavailability turned out to be 16%. Further, the “% IL-2 increase relative to untreated cells” value in series [4] (assayed concentration 2.778 μM) came out at 1782%. Moreover, the CLhep predicted at 1 μM in series [5] was 7.9 mL/min/kg. Also, in series [6], the Papp at 2 h, 10 μM was 19 ×10⁻⁶ cm/s.
For `Cc1c(-c2cc3cc(NC(=O)O[C@H]4C[C@H](C(C)(C)O)C4)ncc3c(N)c2F)cnc2c1NCCO2` [Compound 574a, (1r,3r)-3-(2-Hydroxypropan-2-yl)cyclobutyl (8-amino-7-fluoro-6-(8-methyl-2,3-dihydro-1H-pyrido[2,3-b][1,4]oxazin-7-yl)isoquinolin-3-yl)carbamate], the inhibition constant (Ki) in series [1] was found to be 0.02 nM. In addition, the IC50 in series [2] turned out to be 32 nM. Besides, the “% F” value in series [3] (PO 2 mg/kg) is listed as 16%. The “% IL-2 increase relative to untreated cells” value in series [4] (assayed concentration 1.196 μM) came out at 1634%. Moreover, the “HHep Clearance” value in series [7] is listed as 8.3 mL/min/kg. Moreover, the “MDCK AB Papp” value in the series on gMDCKI cell line was 12 ×10⁻⁶ cm/s.
For `Cc1c(-c2cc3cc(NC(=O)N4CC(C)C4)ncc3c(N)c2F)cnc2c1NCCO2` [Compound 751, N-(8-Amino-7-fluoro-6-(8-methyl-2,3-dihydro-1H-pyrido[2,3-b][1,4]oxazin-7-yl)isoquinolin-3-yl)-3-methylazetidine-1-carboxamide], the Ki in series [1] stood at 0.044 nM. Also, the IC50 in series [2] (Homo sapiens) is 41 nM. In series [3] (PO 2 mg/kg), this compound returned a bioavailability of 9.4%. Besides, the “% IL-2 increase relative to untreated cells” value in series [4] (assayed concentration 2.778 μM) was determined as 1363%. Also, in series [5], the CLhep predicted at 1 μM is below 6.2 mL/min/kg. For the same compound, in series [6], the Papp at 2 h, 10 μM turned out to be 11 ×10⁻⁶ cm/s.
Regarding `Cc1c(-c2cc3cc(NC(=O)N4CC(C)(F)C4)ncc3c(N)c2F)cnc2c1NCCO2` [Compound 755, N-(8-Amino-7-fluoro-6-(8-methyl-2,3-dihydro-1H-pyrido[2,3-b][1,4]oxazin-7-yl)isoquinolin-3-yl)-3-fluoro-3-methylazetidine-1-carboxamide], the Ki in series [1] is 0.09 nM. For the same compound, in series [2] (Homo sapiens), the half-inhibitory concentration (IC50) stood at 46 nM. For the same compound, the bioavailability in series [3] (PO 5 mg/kg) turned out to be 4%. In addition, in series [4] (assayed concentration 2.778 μM), the “% IL-2 increase relative to untreated cells” value is on record as 1061%. Moreover, in series [5], the CLhep predicted at 1 μM was 6.8 mL/min/kg. Further, the Papp at 2 h, 10 μM in series [6] worked out at 10 ×10⁻⁶ cm/s.

As a reminder, the Ki is the dissociation constant of the complex between target and ligand, obtained from inhibition or displacement. For orientation: IC50 means the concentration that inhibits the measured activity by half. Usually bioavailability stands for dose-corrected exposure relative to a reference, in per cent. Read a high bioavailability as good availability. Broadly, the Papp is the rate of passage across a membrane or cell layer, normalised by area and donor concentration.
